Laboratory results taken from article PMC10452266, “Divergent Pharmacology and Biased Signaling of the Four Melanocortin-4 Receptor Isoforms in Rainbow Trout (Oncorhynchus mykiss)” (Biomolecules, 2023).
Read-outs that look alike come from different tables or passages of the source.

Legend:
hMC4R [1] = molecular target: T1, hMC4R (Homo sapiens, UniProt P32245); experiment: Ligand-binding assay (displacement of 125I-NDP-MSH), hMC4R
T1 construct: expressed in transfected cells; host or cells: HEK293T
Protocol: (§1) Cells were plated into 24-well or 6-well plates pre-coated with 0.1% gelatin and transfected with plasmids by the calcium phosphate precipitation method.
A binding assay was conducted as described previously.
Binding assays were used to investigate the binding properties of omMc4rs. […] Data are expressed as % of hMC4R binding ± range from duplicate measurements within one experiment. The curves are representative of at least three independent experiments.

omMc4ra1 [2] = experiment: Ligand-binding assay (displacement of 125I-NDP-MSH), omMc4ra1; design: species or system rainbow trout (Oncorhynchus mykiss); conditions: AgRP 10^-12 to 10^-7 M, MCL0020 and Ipsen 5i 10^-11 to 10^-6 M, ML00253764 10^-10 to 10^-5 M, transfected HEK293T cells
Protocol: (§2) Human Embryonic Kidney (HEK) 293T cells, provided by American Type Culture Collection (Manassas, VA, USA), were cultured as described previously. Cells were plated into 24-well or 6-well plates pre-coated with 0.1% gelatin and transfected with plasmids by the calcium phosphate precipitation method.
(§3) A binding assay was conducted as described previously. […].
(§4) Binding assays were used to investigate the binding properties of omMc4rs. […].  Figure 6 Ligand-binding properties of omMc4rs. […]. Data are expressed as % of hMC4R binding ± range from duplicate measurements within one experiment. The curves are representative of at least three independent experiments.

omMc4ra2 [3] = experiment: Ligand-binding assay (displacement of 125I-NDP-MSH), omMc4ra2; design: species or system rainbow trout (Oncorhynchus mykiss); conditions: AgRP 10^-12 to 10^-7 M, MCL0020 and Ipsen 5i 10^-11 to 10^-6 M, ML00253764 10^-10 to 10^-5 M, transfected HEK293T cells
Protocol: as §2, §3, §4

omMc4rb1 [4] = experiment: Ligand-binding assay (displacement of 125I-NDP-MSH), omMc4rb1; design: species or system rainbow trout (Oncorhynchus mykiss); conditions: displacement of 125I-NDP-MSH, transiently transfected HEK293T cells, 48 h after transfection, mean ± SEM of at least three independent experiments
Protocol: as §2, §3, §4

omMc4rb2 [5] = experiment: Ligand-binding assay (displacement of 125I-NDP-MSH), omMc4rb2; design: species or system rainbow trout (Oncorhynchus mykiss); conditions: AgRP 10^-12 to 10^-7 M, MCL0020 and Ipsen 5i 10^-11 to 10^-6 M, ML00253764 10^-10 to 10^-5 M, transfected HEK293T cells
Protocol: as §2, §3, §4

omMc4ra1 [6] = experiment: Effect of antagonists on basal cAMP level, omMc4ra1; format: cell-based, rainbow trout (Oncorhynchus mykiss); conditions: 10 nM AgRP, 1 μM MCL0020, 1 μM ML00253764 or 1 μM Ipsen 5i, 1 h, HEK293T, RIA, three independent experiments
Protocol: as §1
(§5) Intracellular cAMP levels were determined according to previous protocol.

omMc4ra2 [7] = experiment: Effect of antagonists on basal cAMP level, omMc4ra2; format: cell-based, rainbow trout (Oncorhynchus mykiss); conditions: 10 nM AgRP, 1 μM MCL0020, 1 μM ML00253764 or 1 μM Ipsen 5i, 1 h, HEK293T, RIA, three independent experiments
Protocol: as §1, §5

omMc4rb1 [8] = experiment: Effect of antagonists on basal cAMP level, omMc4rb1; format: cell-based, rainbow trout (Oncorhynchus mykiss); conditions: 10 nM AgRP, 1 μM MCL0020, 1 μM ML00253764 or 1 μM Ipsen 5i, 1 h, HEK293T, RIA, three independent experiments
Protocol: as §1, §5

omMc4rb2 [9] = experiment: Effect of antagonists on basal cAMP level, omMc4rb2; format: cell-based, rainbow trout (Oncorhynchus mykiss); conditions: 10 nM AgRP, 1 μM MCL0020, 1 μM ML00253764 or 1 μM Ipsen 5i, 1 h, HEK293T, RIA, three independent experiments
Protocol: as §1, §5

omMc4ra1 [10] = experiment: ERK1/2 phosphorylation assay, omMc4ra1; format: cell-based, rainbow trout (Oncorhynchus mykiss); conditions: 1 μM α-MSH, 10 nM AgRP, 1 μM MCL0020, 1 μM Ipsen 5i or 1 μM ML00253764, 5 min, HEK293T, Western blot, at least three independent experiments
Protocol: as §2
(§6) HEK293T cells were transfected with omMC4Rs. Twenty-four hours after transfection, cells were washed twice and starved in media without serum for 24 h. […] Rabbit anti-pERK1/2 antibody (Catalog #4370, Cell Signaling, Beverly, MA, USA) and mouse anti-β-tubulin antibody (Developmental Studies Hybridoma Bank, University of Iowa, Iowa City, IA, USA) were used in this study. The bound antibodies were quantified using ImageJ 1.44 software (National Institute of Health, Bethesda, MD, USA).
(§7) Figure 9 ERK1/2 signaling properties of trout Mc4rs. (A) Immunoblots of pERK1/2 in cells expressing omMc4ra1, omMc4ra2, omMc4rb1, or omMc4rb2. HEK293T cells were transiently transfected with omMc4ra1, omMc4ra2, omMc4rb1, omMc4rb2, or empty vector plasmids and were starved overnight 24 h after transfection. […] Western blots were performed as described in Materials and Methods. (B) Densitometry results of basal pERK1/2 levels of omMc4ra1, omMc4ra2, omMc4rb1, and omMc4rb2. (C) Densitometry results of pERK1/2 level of omMc4ra1. (D) Densitometry results of pERK1/2 level of omMc4ra2. […]

omMc4ra2 [11] = experiment: ERK1/2 phosphorylation assay, omMc4ra2; format: cell-based, rainbow trout (Oncorhynchus mykiss); conditions: 1 μM α-MSH, 10 nM AgRP, 1 μM MCL0020, 1 μM Ipsen 5i or 1 μM ML00253764, 5 min, HEK293T, Western blot, at least three independent experiments
Protocol: as §2, §6, §7

omMc4rb1 [12] = experiment: ERK1/2 phosphorylation assay, omMc4rb1; format: cell-based, rainbow trout (Oncorhynchus mykiss)
Protocol: as §2, §6
Figure 9 ERK1/2 signaling properties of trout Mc4rs. (A) Immunoblots of pERK1/2 in cells expressing omMc4ra1, omMc4ra2, omMc4rb1, or omMc4rb2. HEK293T cells were transiently transfected with omMc4ra1, omMc4ra2, omMc4rb1, omMc4rb2, or empty vector plasmids and were starved overnight 24 h after transfection. […] Western blots were performed as described in Materials and Methods. (B) Densitometry results of basal pERK1/2 levels of omMc4ra1, omMc4ra2, omMc4rb1, and omMc4rb2. (C) Densitometry results of pERK1/2 level of omMc4ra1. (D) Densitometry results of pERK1/2 level of omMc4ra2. (E) Densitometry results of pERK1/2 level of omMc4rb1. (F) Densitometry results of pERK1/2 level of omMc4rb2.

omMc4rb2 [13] = experiment: ERK1/2 phosphorylation assay, omMc4rb2; format: cell-based, rainbow trout (Oncorhynchus mykiss); conditions: 1 μM α-MSH, 10 nM AgRP, 1 μM MCL0020, 1 μM Ipsen 5i or 1 μM ML00253764, 5 min, HEK293T, Western blot, at least three independent experiments
Protocol: as §2, §6, §7

hMC4R [14] = molecular target: T1, hMC4R; conditions: cited from earlier work
hMC4R [15] = molecular target: T1, hMC4R; conditions: ref [51]; cited from earlier work
ciMc4r [16] = conditions: ref [51]; cited from earlier work
saMc4r [17] = conditions: ref [51]; cited from earlier work
ciMc4r [18] = conditions: ref [51]; cited from earlier work; remark: listed apart in the source
Excerpt: (§8) Numerous constitutively active mutants have been reported in several GPCRs, resulting in various human diseases, and inverse agonism will be vital for correcting the diseases caused by activating mutations in GPCRs. The constitutive activity of teleost Mc4r may have important physiological functions.

saMc4r [19] = conditions: ref [51]; cited from earlier work; remark: listed apart in the source
Excerpt: as §8

ciMc4r [20] = conditions: ciMc4r (grass carp); ref [48],[51],[81]; cited from earlier work
Excerpt: (§9) MC4R-mediated ERK1/2 signaling has a crucial role in the modulation of energy homeostasis. Although teleost Mc4rs have much higher basal activities in Gs-cAMP signaling, constitutive activation of ERK1/2 signaling is only observed in topmouth culter Mc4r but not in saMc4r and ciMc4r. […] Our data documented that these three compounds only activated ERK1/2 signaling of omMc4rb1 but not the other three omMc4rs (Figure 9).

hMC4R [21] = molecular target: T1, hMC4R; conditions: ref [48],[51],[81]; cited from earlier work
Excerpt: as §9

saMc4r [22] = conditions: saMc4r (spotted scat); ref [48],[51],[81]; cited from earlier work
Excerpt: as §9

T1 sequence (P32245 whole entry): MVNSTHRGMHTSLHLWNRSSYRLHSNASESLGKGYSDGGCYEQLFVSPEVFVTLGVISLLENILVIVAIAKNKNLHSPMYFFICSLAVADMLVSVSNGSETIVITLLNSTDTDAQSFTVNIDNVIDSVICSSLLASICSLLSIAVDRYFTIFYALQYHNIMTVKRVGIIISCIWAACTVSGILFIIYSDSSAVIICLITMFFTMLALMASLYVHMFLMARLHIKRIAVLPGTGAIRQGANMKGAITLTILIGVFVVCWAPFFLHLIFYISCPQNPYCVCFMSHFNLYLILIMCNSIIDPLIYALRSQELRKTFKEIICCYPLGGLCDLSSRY

CSCC[C@@H]1NC(=O)[C@H](C)NC(=O)[C@H]([C@@H](C)O)NC(=O)CNC(=O)[C@H](CC(C)C)NC(=O)[C@H](CCCCN)NC(=O)[C@H](CCCNC(=N)N)NC(=O)[C@@H]2CSSC[C@@H]3NC(=O)[C@@H]4CCCN4C(=O)[C@H](C(C)C)NC(=O)[C@H](CCC(N)=O)NC(=O)[C@H](CCC(N)=O)NC(=O)CNC(=O)[C@H](CC(C)C)NC(=O)[C@@H]4CSSC[C@H](NC(=O)[C@H]([C@@H](C)O)NC(=O)[C@H](C)NC(=O)[C@H](CSSC[C@@H](C(=O)N[C@@H](CO)C(=O)N[C@@H](CCCNC(=N)N)C(=O)N[C@H](C(=O)O)[C@@H](C)O)NC(=O)[C@@H]5CCCN5C(=O)[C@H](CC(N)=O)NC1=O)NC(=O)[C@@H]1CCCN1C(=O)[C@H](CC(=O)O)NC(=O)[C@H](CSSC[C@H](NC(=O)[C@H](CCCNC(=N)N)NC(=O)[C@H](CCCNC(=N)N)NC(=O)[C@H](CO)NC(=O)[C@@H](N)CO)C(=O)N[C@@H](C(C)C)C(=O)N[C@@H](CCCNC(=N)N)C(=O)N[C@@H](CC(C)C)C(=O)N[C@@H](Cc1c[nH]cn1)C(=O)N[C@@H](CCC(=O)O)C(=O)N[C@@H](CO)C(=O)N4)NC3=O)C(=O)N[C@@H](Cc1ccc(O)cc1)C(=O)N[C@H]1CSSC[C@H](NC(=O)[C@H](Cc3ccccc3)NC(=O)[C@H](C)NC(=O)[C@H](CC(N)=O)NC(=O)[C@H](Cc3ccccc3)NC(=O)[C@H](Cc3ccccc3)NC(=O)[C@H](CCCNC(=N)N)NC1=O)C(=O)N[C@@H](Cc1ccc(O)cc1)C(=O)N2 [AgRP]
IC50 (hMC4R [1]): 32.5 ± 7.76 nM

CC(=O)N[C@H](Cc1ccc2ccccc2c1)C(=O)N[C@@H](CCCNC(=N)N)C(=O)N[C@@H](Cc1ccc2ccccc2c1)C(N)=O [MCL0020, Ac-D-2-Nal-Arg-2-Nal-NH2]
IC50 (hMC4R [1]; hMC4R, displacement of 125I-NDP-MSH, transiently transfected HEK293T cells, 48 h after transfection, mean ± SEM of at least three independent experiments, read-out: IC50): 62.3 ± 4.82 nM | displacement of 125I-NDP-MSH binding (omMc4ra1 [2]): only displaced ^125I-NDP-MSH binding to hMC4R and omMc4rb1 | displacement of 125I-NDP-MSH binding (omMc4ra2 [3]): only displaced ^125I-NDP-MSH binding to hMC4R and omMc4rb1 | IC50 (omMc4rb1 [4]): 305 ± 66.2 nM | displacement of 125I-NDP-MSH binding (omMc4rb2 [5]): only displaced ^125I-NDP-MSH binding to hMC4R and omMc4rb1 | effect on basal cAMP level (omMc4ra1 [6]): no significant effect | effect on basal cAMP level (omMc4ra2 [7]): no significant effect | effect on basal cAMP level (omMc4rb1 [8]): no significant effect | effect on basal cAMP level (omMc4rb2 [9]): no significant effect | effect on ERK1/2 phosphorylation (omMc4ra1 [10]): not by ML00253764, Ipsen 5i, or MCL0020 | effect on ERK1/2 phosphorylation (omMc4ra2 [11]): no effect | effect on ERK1/2 phosphorylation (omMc4rb1 [12]; 1 μM α-MSH, 10 nM AgRP, 1 μM MCL0020, 1 μM Ipsen 5i or 1 μM ML00253764, 5 min, HEK293T, Western blot, at least three independent experiments): significantly increased | biased signaling, cAMP versus ERK1/2 (omMc4rb1 [12]; concluded from binding, cAMP and pERK1/2 results): biased allosteric modulators for omMc4rb1 with selective activation on ERK1/2 signaling | effect on ERK1/2 phosphorylation (omMc4rb2 [13]): no effect | basal activity of hMC4R and constitutively active mutant hMC4Rs (hMC4R [14]; hMC4R and mutants, ref [1],[28],[48],[51]): reduced by inverse agonists | type of ligand at hMC4R (hMC4R [14]; hMC4R, ref [51],[56],[79]): neutral antagonist of hMC4R | NDP-MSH displacement (hMC4R [15]): replaces NDP-MSH binding | NDP-MSH displacement (ciMc4r [16]): replaces NDP-MSH binding | NDP-MSH displacement (saMc4r [17]): replaces NDP-MSH binding | NDP-MSH-induced cAMP generation (ciMc4r [18]): antagonizes NDP-MSH-induced cAMP generation | basal cAMP production (ciMc4r [18]): decreases the basal cAMP production of ciMc4r | basal and ligand-induced cAMP levels (saMc4r [19]): no effect on basal and ligand-induced cAMP levels | biased signaling, Gs-cAMP versus ERK1/2 (ciMc4r [20]): preferred activation on ERK1/2 signaling | biased signaling, Gs-cAMP versus ERK1/2 (hMC4R [21]): preferred activation on ERK1/2 signaling | biased signaling, Gs-cAMP versus ERK1/2 (saMc4r [22]): preferred activation on ERK1/2 signaling
